In this assay the target is T1, YjhC (Escherichia coli, UniProt P39353).
T1 construct: gene nanY; full-length ORF from ASKA library in pCA24N, N-terminal His6-tag kept, expressed in E. coli BL21
Nature of the assay: LC-MS of ligand co-purified with the enzyme. The class given is binding. The note with it: co-purified after metal affinity and gel filtration. (SEC sorts molecules by how far they enter the pores of the column.)

T1 sequence (P39353 whole entry): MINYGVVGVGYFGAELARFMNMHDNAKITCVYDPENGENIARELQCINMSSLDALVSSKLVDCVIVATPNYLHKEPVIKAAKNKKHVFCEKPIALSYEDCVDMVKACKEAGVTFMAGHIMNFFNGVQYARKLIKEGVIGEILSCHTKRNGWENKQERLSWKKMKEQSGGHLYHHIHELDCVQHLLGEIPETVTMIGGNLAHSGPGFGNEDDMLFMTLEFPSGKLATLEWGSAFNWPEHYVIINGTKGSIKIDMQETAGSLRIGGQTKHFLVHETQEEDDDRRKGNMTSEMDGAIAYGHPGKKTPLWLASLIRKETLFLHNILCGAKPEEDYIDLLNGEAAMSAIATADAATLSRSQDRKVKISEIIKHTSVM

Take `NC(=O)C1=CN([C@@H]2O[C@H](COP(=O)(O)OP(=O)(O)OC[C@H]3O[C@@H](n4cnc5c(N)ncnc54)[C@H](O)[C@@H]3O)[C@@H](O)[C@H]2O)C=CC1` [NADH]: the co-purified ligand detected entry is “presence of small amounts of NAD^+ and NADH”.

The values are drawn from publication PMC7315737, “The putative Escherichia coli dehydrogenase YjhC metabolises two dehydrated forms of N-acetylneuraminate produced by some sialidases” (Bioscience Reports, 2020).
